Test results as given in the NIST ThermoML archive (doi:10.1021/je7006549).
± gives the expanded uncertainty stated by the source.

Assay: mn = molality of the nth substance listed, in mol/kg
Details: 101 kPa, Liquid

In the case of CC1=CC(=O)c2ccccc2C1=O [2-methyl-1,4-naphthalenedione] + CCc1ccccc1, the mass density (303.15 K, m1 = 0.0451) is reported as 859.9 ± 0.7 kg/m3, the viscosity (303.15 K, m1 = 0.0451) is reported as 0.6083 ± 0.0096 mPa·s and the mass density (303.15 K, m1 = 0.0903) is reported as 861.8 ± 0.7 kg/m3. It also gave a viscosity (303.15 K, m1 = 0.0903) of 0.6164 ± 0.0096 mPa·s, a mass density (303.15 K, m1 = 0.1354) of 863.7 ± 0.7 kg/m3 and a viscosity (303.15 K, m1 = 0.1354) of 0.6218 ± 0.0097 mPa·s. It also gave a mass density (303.15 K, m1 = 0.1805) of 865.6 ± 0.7 kg/m3, a viscosity (303.15 K, m1 = 0.1805) of 0.6317 ± 0.0098 mPa·s and a mass density (303.15 K, m1 = 0.2256) of 867.5 ± 0.7 kg/m3. The viscosity (303.15 K, m1 = 0.2256) was 0.6333 ± 0.0098 mPa·s, the mass density (303.15 K, m1 = 0.271) was 869.4 ± 0.7 kg/m3 and the viscosity (303.15 K, m1 = 0.271) was 0.6361 ± 0.0098 mPa·s. The mass density (308.15 K, m1 = 0.0451) was 855.4 ± 0.7 kg/m3, the viscosity (308.15 K, m1 = 0.0451) was 0.5735 ± 0.0093 mPa·s and the mass density (308.15 K, m1 = 0.0903) was 857.3 ± 0.7 kg/m3. It also gave a viscosity (308.15 K, m1 = 0.0903) of 0.5794 ± 0.0094 mPa·s, a mass density (308.15 K, m1 = 0.1354) of 859.2 ± 0.7 kg/m3 and a viscosity (308.15 K, m1 = 0.1354) of 0.5853 ± 0.0094 mPa·s. It also gave a mass density (308.15 K, m1 = 0.1805) of 861.1 ± 0.7 kg/m3, a viscosity (308.15 K, m1 = 0.1805) of 0.5893 ± 0.0094 mPa·s and a mass density (308.15 K, m1 = 0.2256) of 863 ± 0.7 kg/m3. The viscosity (308.15 K, m1 = 0.2256) was 0.5948 ± 0.0095 mPa·s, the mass density (308.15 K, m1 = 0.271) was 864.9 ± 0.8 kg/m3 and the viscosity (308.15 K, m1 = 0.271) was 0.5991 ± 0.0095 mPa·s. For the same molecule, the mass density (313.15 K, m1 = 0.0451) was 851.4 ± 0.8 kg/m3, the viscosity (313.15 K, m1 = 0.0451) was 0.5439 ± 0.0091 mPa·s and the mass density (313.15 K, m1 = 0.0903) was 853.3 ± 0.8 kg/m3. The viscosity (313.15 K, m1 = 0.0903) was 0.5484 ± 0.0091 mPa·s, the mass density (313.15 K, m1 = 0.1354) was 855.2 ± 0.8 kg/m3 and the viscosity (313.15 K, m1 = 0.1354) was 0.5543 ± 0.0092 mPa·s. For the same molecule, the mass density (313.15 K, m1 = 0.1805) was 857.1 ± 0.8 kg/m3, the viscosity (313.15 K, m1 = 0.1805) was 0.557 ± 0.0092 mPa·s and the mass density (313.15 K, m1 = 0.2256) was 859 ± 0.8 kg/m3. For the same molecule, the viscosity (313.15 K, m1 = 0.2256) was 0.5611 ± 0.0092 mPa·s, the mass density (313.15 K, m1 = 0.271) was 860.9 ± 0.8 kg/m3 and the viscosity (313.15 K, m1 = 0.271) was 0.5673 ± 0.0093 mPa·s. For the same molecule, the mass density (318.15 K, m1 = 0.0451) was 846.6 ± 0.8 kg/m3, the viscosity (318.15 K, m1 = 0.0451) was 0.5104 ± 0.0088 mPa·s and the mass density (318.15 K, m1 = 0.0903) was 848.5 ± 0.8 kg/m3. It also gave a viscosity (318.15 K, m1 = 0.0903) of 0.5148 ± 0.0089 mPa·s, a mass density (318.15 K, m1 = 0.1354) of 850.4 ± 0.8 kg/m3 and a viscosity (318.15 K, m1 = 0.1354) of 0.5192 ± 0.0089 mPa·s. For the same molecule, the mass density (318.15 K, m1 = 0.1805) was 852.3 ± 0.8 kg/m3, the viscosity (318.15 K, m1 = 0.1805) was 0.5241 ± 0.0089 mPa·s and the mass density (318.15 K, m1 = 0.2256) was 854.2 ± 0.8 kg/m3. For the same molecule, the viscosity (318.15 K, m1 = 0.2256) was 0.5283 ± 0.009 mPa·s, the mass density (318.15 K, m1 = 0.271) was 856.1 ± 0.8 kg/m3 and the viscosity (318.15 K, m1 = 0.271) was 0.533 ± 0.009 mPa·s. For the same molecule, the mass density (323.15 K, m1 = 0.0451) was 842.4 ± 0.8 kg/m3, the viscosity (323.15 K, m1 = 0.0451) was 0.4832 ± 0.0086 mPa·s and the mass density (323.15 K, m1 = 0.0903) was 844.3 ± 0.8 kg/m3. It also gave a viscosity (323.15 K, m1 = 0.0903) of 0.4881 ± 0.0087 mPa·s, a mass density (323.15 K, m1 = 0.1354) of 846.2 ± 0.8 kg/m3 and a viscosity (323.15 K, m1 = 0.1354) of 0.4937 ± 0.0087 mPa·s. It also gave a mass density (323.15 K, m1 = 0.1805) of 848.1 ± 0.8 kg/m3, a viscosity (323.15 K, m1 = 0.1805) of 0.4969 ± 0.0087 mPa·s and a mass density (323.15 K, m1 = 0.2256) of 850 ± 0.8 kg/m3. It also gave a viscosity (323.15 K, m1 = 0.2256) of 0.5015 ± 0.0088 mPa·s, a mass density (323.15 K, m1 = 0.271) of 851.9 ± 0.8 kg/m3 and a viscosity (323.15 K, m1 = 0.271) of 0.5054 ± 0.0088 mPa·s. For the same molecule, the mass density (328.15 K, m1 = 0.0451) was 837.8 ± 0.8 kg/m3, the viscosity (328.15 K, m1 = 0.0451) was 0.4615 ± 0.0085 mPa·s and the mass density (328.15 K, m1 = 0.0903) was 839.7 ± 0.8 kg/m3. The viscosity (328.15 K, m1 = 0.0903) was 0.4648 ± 0.0085 mPa·s, the mass density (328.15 K, m1 = 0.1354) was 841.6 ± 0.8 kg/m3 and the viscosity (328.15 K, m1 = 0.1354) was 0.4715 ± 0.0086 mPa·s. It also gave a mass density (328.15 K, m1 = 0.1805) of 843.5 ± 0.8 kg/m3, a viscosity (328.15 K, m1 = 0.1805) of 0.474 ± 0.0086 mPa·s and a mass density (328.15 K, m1 = 0.2256) of 845.4 ± 0.8 kg/m3. For the same molecule, the viscosity (328.15 K, m1 = 0.2256) was 0.4758 ± 0.0086 mPa·s, the mass density (328.15 K, m1 = 0.271) was 847.3 ± 0.8 kg/m3 and the viscosity (328.15 K, m1 = 0.271) was 0.4806 ± 0.0086 mPa·s. The mass density (333.15 K, m1 = 0.0451) was 833.5 ± 0.9 kg/m3, the viscosity (333.15 K, m1 = 0.0451) was 0.4405 ± 0.0083 mPa·s and the mass density (333.15 K, m1 = 0.0903) was 835.4 ± 0.9 kg/m3. For the same molecule, the viscosity (333.15 K, m1 = 0.0903) was 0.444 ± 0.0084 mPa·s, the mass density (333.15 K, m1 = 0.1354) was 837.3 ± 0.9 kg/m3 and the viscosity (333.15 K, m1 = 0.1354) was 0.4475 ± 0.0084 mPa·s. For the same molecule, the mass density (333.15 K, m1 = 0.1805) was 839.2 ± 0.9 kg/m3, the viscosity (333.15 K, m1 = 0.1805) was 0.451 ± 0.0084 mPa·s and the mass density (333.15 K, m1 = 0.2256) was 841.1 ± 0.9 kg/m3. It also gave a viscosity (333.15 K, m1 = 0.2256) of 0.4546 ± 0.0084 mPa·s, a mass density (333.15 K, m1 = 0.271) of 843 ± 0.9 kg/m3 and a viscosity (333.15 K, m1 = 0.271) of 0.4581 ± 0.0085 mPa·s.
